Assay results from US20140329776A1, “Mitochondria-Targeted Antioxidants for Treatment of Age-Related Brain Disorders” (MITOTECH S.A., priority 2011, published 2014).

Columns and labels:
Type in all cases: in vivo, rat
[1] = system: chronically alcoholised rats; test: elevated plus maze test of chronically alcoholised rats; settings: SkQ1 250 nM solution orally every two days for 20 days, vs Negative Control
Protocol: FIG. 10 is a graphic representation showing behavior parameters in the elevated plus-maze test of chronically alcoholised rats in % to intact control. (*−p<0.05; ** −p<0.005 to negative control; #—p<0.05, ##—p<0.01, to intact control);
(§1) Male albino rats had free access to a 15% ethanol solution, as well as to food and water. After 6 months of alcoholisation, animals with average consumption more than 11 ml of 15% ethanol solution were divided into two even groups and subjected to the following treatment. The Negative Control group (n=16) (chronically alcoholised rats) were orally administered 1 ml per kg of isotonic 0.9% NaCl solution every two days for 20 days during alcohol deprivation. The SkQ1 group (n=17) (chronically alcoholised rats) were orally administered 1 ml per kg of SkQ1 250 nM solution every two days for 20 days during alcohol deprivation. The Intact Control group (n=10) (animals had no previous contact with ethanol) were orally administered 1 ml per kg of normal physiological solution every two days for 20 days.
(§2) After this course of drug administration, the effect on behavioral parameters was observed using the open field test, the elevated plus maze test, and the Porsolt forced swimming test.

Wistar rats [2] = test: acoustical startle reflex, pre-impulse inhibition in offspring of rats with hyperhomocysteinemia; settings: pups day 45
From the text: FIG. 13 is a graphic representation showing the inhibition of startle reaction to loud stimulus by pre-impulse in rats, where the histogram bars indicate the mean level of startle reaction after pre-stimulus as % to that of control group of rats (without hyperhomocisteinemia). l-m corresponds to group of rats treated with high L-methionine diet, and skq+lm corresponds to group of rats treated with high L-methionine diet and SkQ1.
FIG. 14 is a graphic representation showing habituation of rats to double acoustic stimulus in normal conditions, under hyperhomocisteinemia and under hyperhomocisteinemia treated with SkQ1, where motor reaction to the double stimulus and P values for different pairs of groups is indicated.
An experiment was performed on 161 female Wistar rats (n=12) with body weight 200 g-250 g and their offspring (n=149) from 0 to 1.5 months old. All animals were SPF-category and were housed under the standard conditions according to GLP-regulations (controlled microbiological conditions, light-dark cycle 12/12 hours, ventilation rate 10-12 V/h, room temperature 22+2° C., with maximum change 1° C. per day, humidity 30-70%). Rats were housed in individual cages with free access to food and water.
Each female rat was held with 3 male rats for one night. First day of the pregnancy was considered to be the day when spermatozoon were found in a vaginal smear. […]

Wistar rats [3] = test: elevated plus maze test 24 hours after ethanol narcosis; settings: 250 nM SkQ1 group; p<0.05
Protocol: FIG. 8 is a graphic representation showing behavior parameters in the elevated plus maze test 24 hours after ethanol narcosis in % to negative control. (*−p<0.05 to intact control);
In these experiments, 6 groups of experimental animals (Wistar rats) were used. (1) The Intact Control group (n=12), had no ethanol narcosis, and were orally administered a normal isotonic 0.9% NaCl solution; (2) the Negative Control group (n=12) was orally administered a normal physiological solution after ethanol narcosis; (3) The SkQ1 50 nM control group (n=12) was orally administered SkQ1 in a concentration 50 nM after ethanol narcosis; (4) The SkQ1 250 nM control group (n=12) was orally administered SkQ1 in a concentration of 250 nM after ethanol narcosis; (5) The SkQ1 1250 nM control group (n=12) was orally administered SkQ1 in a concentration of 1250 nM after ethanol narcosis; (6) the SkQ1 1250 nM intr control group (n=13) was intraperitoneally administered SkQ1 in a concentration of 1250 nM after ethanol narcosis.
Twenty-four hours after ethanol narcosis, elevated plus maze (Treit et al. (1993) Pharmacol. Biochem. Behav. 44:463-9) and Porsolt forced swimming (Petit-Demouliere et al. (2005) Psychopharmacol. (Berl). 177: 245-55) tests were performed. […]

[4] = system: chronically alcoholised rats; test: open field test of chronically alcoholised rats; settings: vs Negative Control
Protocol: FIG. 9 is a graphic representation showing behavior parameters in the open field test of chronically alcoholised rats in % to intact control. (*−p<0.05; **—p<0.005 to negative control; #—p<0.05, ##—p<0.01, to intact control);
as §1, §2
In the open field test, treated animals had increased number of rearing ((p<0.05), number of entrance in central zone (p<0.01), movement time in central zone (p<0.05)) compared to the Negative Control group (FIG. 9. Therefore, SkQ1 increases exploratory activity during alcohol deprivation.

CC1=C(C)C(=O)C(CCCCCCCCCC[P+](c2ccccc2)(c2ccccc2)c2ccccc2)=CC1=O [SkQ1, plastoquinonyl decyltriphenyl-phosphonium]
significantly reduced: non stable and very high reflex reaction on sound stimuli (effect of hyperhomocisteinemia) (Wistar rats [2]; SkQ1-treated group)
normalized: parameters of pre-impulse inhibition of the progeny (Wistar rats [2]; SkQ1 250 nM/kg orally to mother rats once per 2 d during lactation)
increased: number of looking out from closed arms [1] | rearing ([1]; p<0.005) | movement time in central zone ([1]; p<0.05) | track length in closed arms ([1]; p<0.05) | looking out from closed arms (Wistar rats [3]) | number of risk behavior (Wistar rats [3]) | number of rearing ([4]; 1 ml per kg SkQ1 250 nM solution orally every two days for 20 days during alcohol deprivation, p<0.05) | number of entrance in central zone ([4]; SkQ1 250 nM solution orally every two days for 20 days, p<0.01) | movement time in central zone ([4]; SkQ1 250 nM solution orally every two days for 20 days, p<0.05)
